Data: patent publication US20230095199A1, “DIMETHYL SULFOXIDE (DMSO) FORMULATIONS FOR TREATING AUTISM” (Abela Pharmaceuticals, Inc., priority 2010, published 2023)
“Also recorded” adds a separate entry of the source.

Tested on: patient, diagnosed with an autism spectrum disorder
Assay: Case treatment of a patient with autism spectrum disorder with oral MSM and/or DMSO
Type: in vivo
Experimental: A patient, diagnosed with an autism spectrum disorder, was treated with a combination of MSM and DMSO, beginning. […] In some embodiments, combination of MSM and DMSO unexpectedly improve one or more symptoms associated with autism, as compared to administration of MSM or DMSO individually. In several embodiments, in addition to the beneficial therapeutic effects, the combination of MSM and DMSO reduces one or more of the side effects typically associated with DMSO administration (e.g., odor, gastrointestinal distress). In some embodiments, these unexpected effects are the result of the continued (e.g., daily) administration of MSM/DMSO, while in other embodiments, these effects are long-term (e.g., persist beyond the period of continued administration of MSM/DMSO). Moreover, in certain embodiments, combinations of MSM and DMSO result in synergistic therapeutic effects for one or more of the symptoms of autism. In some embodiments, these synergistic effects are the result of the continued (e.g., daily) administration of MSM/DMSO, while in other embodiments, these effects are long-term (e.g., persist beyond the period of continued administration of MSM/DMSO).
The patient's symptoms include stimming, nighttime stimming, hyperactive gag reflex, impaired social interaction, a lack of vocalization and communication, delayed success with toilet training, and constipation. DMSO/MSM treatment was initiated for patient. The patient was treated with 4.7 grams of oral MSM solution daily (4½ teaspoons daily of a 15% solution). […] The patient was also treated with 4.7 grams of MSM and 0.025 grams of DMSO in an oral solution (4½ teaspoons daily of 15% MSM and 0.1% DMSO).
The patient was also treated with two short term bolus treatments with increased amounts of DMSO. In addition to the 4.7 g of MSM and 0.025 g of DMSO in an oral solution, the patient received an additional 4.8 g/day of DMSO for a short duration of 10 days (1 teaspoon, 90% oral solution). […] The patient's chronic constipation was also eliminated during these treatment cycles of higher doses of DMSO.
The patient was further treated with an oral formulation comprising 4.7 g of MSM and […] of DMSO. Improvements in communication, social interaction, and constipation continued at this dosage.

[1] = additional 4.8 g/day DMSO (90% oral solution) for 10 days on top of 4.7 g MSM and 0.025 g DMSO
[2] = after one month of 4.7 g MSM daily

SMILES | ability to vocalize [1] | chronic constipation [1] | different words vocalized during a session (larger dose of DMSO for 10 days in addition to normal treatment) | frequency of nightly stimming (4.7 g MSM daily (15% solution)) | time until improvement of stimming was noted (4.7 g MSM daily (15% solution)) [weeks] | reduction of daytime stimming (4.7 g oral MSM daily (15% solution)) | incidents of hyperactive gag reflex (4.7 g oral MSM daily (15% solution), within 12 weeks) | reduction of stimming (especially night-time stimming) (4.7 g oral MSM daily (15% solution, 4½ teaspoons), within 12 weeks) | signs known [2] | time engaged in an activity [2] [min] | vocalization [2]
C[S+](C)[O-] [DMSO, Dimethyl sulfoxide] | improved dramatically | eliminated; also recorded: vastly improved | six |  |  |  |  |  |  |  | 
CS(C)(=O)=O [MSM, Methylsulfonylmethane] |  |  |  | reduced from every night to once every two or three weeks | ≤ 12 | about 80% | reduced from multiple times per day to only a few times per month | about 90% | gained an additional sign | 8 to 10 | became more vocal
